The values below come from ChEMBL document CHEMBL1201862, “PubChem BioAssay data set” (2004).

In one assay the target is T1, fMet-Leu-Phe receptor (Homo sapiens, UniProt P21462).
T1 sequence (P21462 whole entry): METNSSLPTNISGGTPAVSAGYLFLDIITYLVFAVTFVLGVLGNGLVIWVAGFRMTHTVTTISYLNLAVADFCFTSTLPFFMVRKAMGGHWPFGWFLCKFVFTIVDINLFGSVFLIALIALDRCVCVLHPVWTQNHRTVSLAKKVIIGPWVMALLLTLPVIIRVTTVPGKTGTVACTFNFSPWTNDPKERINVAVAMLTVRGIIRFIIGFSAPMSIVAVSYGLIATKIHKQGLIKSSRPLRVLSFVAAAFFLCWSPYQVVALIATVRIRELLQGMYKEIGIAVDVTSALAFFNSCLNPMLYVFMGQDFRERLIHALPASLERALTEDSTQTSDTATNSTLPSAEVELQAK
Nature of the assay: FPR ligands, dose response (AID 519). The assay is classed as functional.

Assay [1] in a line: cytotoxicity in OVCAR8 ovarian cancer cells, dose response, PAX8 project, cell-based, plate reader, dry powder samples (AID 743197). The assay is classed as functional. The following applies: OVCAR-8.
The next assay deals with Paired box protein Pax-8 (Homo sapiens, UniProt Q06710). Kind of assay: inhibitors of PAX8-driven TPO luciferase reporter, dose response, RMG-I cells, cherry-pick (AID 687027).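 Further: luciferase reporter driven by Pax8 target thyroperoxidase promoter measured by SteadyGlo luminescence.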 The assay is classed as functional, cell-based.
The nature of assay [2]: T. cruzi growth inhibition in host cells, dose response, cell-based, plate reader, dry powder, set 2 (AID 652275). The assay is classed as functional.
Assay [3] can be described thus: cells.
The target of another assay is Major prion protein (Homo sapiens, UniProt P04156). The format is functional, cell-based.
Assay [4] has as its target T2, Heat shock factor protein 1 (Mus musculus, UniProt P38532).
T2 sequence (P38532 whole entry): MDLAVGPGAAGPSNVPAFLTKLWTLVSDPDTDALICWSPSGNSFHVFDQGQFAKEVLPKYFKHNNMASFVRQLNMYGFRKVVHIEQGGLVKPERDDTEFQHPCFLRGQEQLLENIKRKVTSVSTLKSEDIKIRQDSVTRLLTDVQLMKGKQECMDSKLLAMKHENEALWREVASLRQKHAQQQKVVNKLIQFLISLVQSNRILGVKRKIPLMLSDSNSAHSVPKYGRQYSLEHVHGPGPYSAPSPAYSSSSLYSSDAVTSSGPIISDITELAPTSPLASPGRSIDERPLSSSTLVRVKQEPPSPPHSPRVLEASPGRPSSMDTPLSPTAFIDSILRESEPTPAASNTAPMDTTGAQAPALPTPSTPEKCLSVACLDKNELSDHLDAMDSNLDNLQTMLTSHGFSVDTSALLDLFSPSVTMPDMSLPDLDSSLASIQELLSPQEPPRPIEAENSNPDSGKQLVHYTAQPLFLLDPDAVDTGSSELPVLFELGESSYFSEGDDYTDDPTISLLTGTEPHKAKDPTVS
Kind of assay: inhibition of MG132-induced HSE-luciferase signal, confirmation, cell-based, NIH3T3, luminescence, dose retest (AID 2382).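 Further: NIH3T3 fibroblasts with HSF1-driven luciferase reporter stressed by proteasome inhibitor MG132; luminescence from HSF1-driven luciferase expression after 8 hours of MG132 stress.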 The assay is classed as functional.

For assay [5], the target named is T3, COUP transcription factor 2 (Homo sapiens, UniProt P24468).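 Further: HEK293 cells transiently cotransfected with COUP-TFII expression vector and reporter; luciferase reporter luminescence driven by COUP-TFII from the pX2-168 reporter plasmid.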
T3 sequence (P24468 whole entry): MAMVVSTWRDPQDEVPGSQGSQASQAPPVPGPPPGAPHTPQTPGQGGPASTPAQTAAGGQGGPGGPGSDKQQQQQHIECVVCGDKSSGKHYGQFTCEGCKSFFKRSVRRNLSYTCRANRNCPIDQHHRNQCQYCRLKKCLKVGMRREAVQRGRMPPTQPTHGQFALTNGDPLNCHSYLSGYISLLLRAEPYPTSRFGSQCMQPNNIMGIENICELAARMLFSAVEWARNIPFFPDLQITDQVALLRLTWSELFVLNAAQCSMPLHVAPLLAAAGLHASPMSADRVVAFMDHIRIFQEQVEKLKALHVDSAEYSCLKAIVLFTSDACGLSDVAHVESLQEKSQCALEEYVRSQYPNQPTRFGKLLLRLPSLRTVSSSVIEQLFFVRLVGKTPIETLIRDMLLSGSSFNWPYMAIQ
Kind of assay: Luminescence-based cell-based high throughput dose response assay to identify inhibitors of COUP-TFII (NR2F2). The assay is classed as functional.

Assay [6] can be described thus: MC4R antagonists, dose response, counter-screen for LGR2 antagonist project, cell-based, plate reader, cherry pick (AID 743444).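 Further: transfected HEK 293 cells stimulated with alpha-MSH peptide; potency of inhibitors of the alpha-MSH evoked signal.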 The assay is classed as functional.
The nature of assay [7]: LGR2 antagonists, dose response, cell-based, HEK293, CRE-luciferase reporter, cherry pick, set 2 (AID 743343).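 Further: transfected cells were stimulated with diluted bursicon conditioned medium after compound addition.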 The assay is classed as functional.
A short description of assay [8]: HEK293 cell cytotoxicity, dose response, cytotoxicity control, plate reader, cherry-picked samples (AID 743446). The format is functional, cell-based.
Assay [9] can be described thus: inhibitors of intracellular T. cruzi replication, confirmation, NIH3T3 host cells, beta-gal luminescence (AID 2044).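 Further: intracellular parasites grown in NIH/3T3 mouse fibroblasts as host cells; luminescent beta-galactosidase reporter signal from transgenic T. cruzi replicating inside host cells; inhibitors lower the luminescence signal.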 The format is functional, cell-based.
Assay [10] in a line: cells. The source holds these as a separate data set.
The nature of assay [11]: cytotoxicity toward NIH3T3 fibroblasts, dose response, counter-screen, cell-based, ATP luminescence, mouse fibroblasts (AID 2010).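 Further: cells exposed to compound for about 90 hours before reading.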 The format is functional. (Counterscreens check selectivity or assay interference.)
Assay [12] in a line: Luminescence Cell-Based Dose Response HTS to Identify Inhibitors of 5'UTR Stem-Loop Driven Prion Protein mRNA Translation in H4 Neuroglioblastoma Cells. [Related pubchem assays: 1827 (Project Summary), 1813 (Primary HTS)]. The assay is classed as functional.
Assay [13] is described as follows: cytotoxicity toward DRD oncogenic fibroblasts, dose response, cell-based, non-viral oncogenic, luminescence (AID 1934). The format is functional. Conditions: Homo sapiens.
The test system of assay [14] is BJ. Nature of the assay: cytotoxicity toward BJ-TERT-LT-ST fibroblasts, dose response, cell-based, RAS-independent, luminescence (AID 1935).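 Further: BJ fibroblasts immortalized with TERT plus LT and ST oncogenes.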 The format is functional. Conditions: Homo sapiens.
The nature of assay [15]: A549 cell cytotoxicity, dose response, cytotoxicity control, plate reader, cherry-pick, antagonist series (AID 743412). The assay is classed as functional, cell-based.
For assay [16], the system named is BJ. Nature of the assay: cells. The following applies: Homo sapiens. The assay is classed as functional, cell-based.
The nature of assay [17]: HepG2 cell cytotoxicity, dose response, cytotoxicity control, plate reader, cherry-pick, antagonist series (AID 743416). The assay is classed as functional, cell-based.
Assay [18] in a line: inhibitors of SNCA 5'UTR-driven reporter translation, confirmation, H4 neuroglioma cells, luminescence (AID 1988). The assay is classed as functional, cell-based.
Assay [19] concerns BJ. Nature of the assay: cytotoxicity toward BJ-TERT fibroblasts, dose response, cell-based, RAS-independent, luminescence (AID 1933). The format is functional. Conditions: Homo sapiens.
A short description of assay [20]: cytotoxicity toward HT-29 cells – cell-based, CellTiter-Glo luminescence, IC50, dose response (AID 1117330). The format is functional. A general note: In ATP-based viability assays light output follows the ATP content of the culture.
Assay [21] is described as follows: Concentration-dependent survival of SW480 colon cancer line, luminescence detection with CellTiter-Glo, half-maximal inhibitory concentration (AID 1117338). The format is functional.
Assay [22] in a line: RKO cell viability reduction, dose response, CellTiter-Glo luminescence (AID 1117322). The assay is classed as functional.
A short description of assay [23]: CellTiter-Glo luminescent dose response of DLD-1 viability loss (AID 1117352). The assay is classed as functional.
A short description of assay [24]: SNU-C1 cell viability reduction, dose response, CellTiter-Glo luminescence (AID 1117323). The assay is classed as functional, cell-based.
A short description of assay [25]: cytotoxicity toward Colo320 cells – cell-based, CellTiter-Glo luminescence, IC50, dose response (AID 1117334). The assay is classed as functional. Conditions: COLO 320.
The nature of assay [26]: cytotoxicity toward HCT116 cells – cell-based, CellTiter-Glo luminescence, IC50, dose response (AID 1117332). The assay is classed as functional. Conditions: HCT-116.
For another assay, the target named is Estrogen receptor beta (Homo sapiens, UniProt Q92731).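 Further: recombinant ER-beta bound to coactivator SRC1 peptide in presence of estradiol agonist; inhibitors block coactivator peptide binding and lower the FRET signal.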

Structures can show the parent of a compound that is named as a salt. Active and inactive are the calls of the source.

Turning to `COc1ccc(C(=O)C2=C(O)C(=O)N(Cc3ccco3)C2c2ccc(OC)cc2OC)cc1` (stereo not drawn), the Ki at fMet-Leu-Phe receptor is > 66.7 µM (inactive).
Regarding `O=C(C[C@@H]1CC[C@H]2[C@@H](COC[C@@H](O)CN2Cc2cccc(C(F)(F)F)c2)O1)NCc1ccc(F)cc1`, the AC50 in assay [1] is 51.7 µM (active); on Paired box protein Pax-8, 27.9 µM (active).
With `CN(C)C(=O)c1cccc(-c2ccc([C@@H]3[C@@H](CO)N4CCCCN(C(=O)C5CCC5)C[C@H]34)cc2)c1`, the AC50 in assay [2] was 14.4 µM (active).
As to `CC(C)N1C[C@@H](CN(C)Cc2ccc(Cl)cc2)Oc2c(NC(=O)c3ccncn3)cccc2C1=O`, the AC50 in [2] was 0.00548 µM (active).
For `CC(=O)c1sccc1NC(=O)c1ccccc1C(=O)O`, the IC50 is > 138 µM (inactive) in “cells [3]” and 3.09 µM (active) on Major prion protein.
With `COCCn1c(C)c(C)c2c(NCCc3ccccc3)ncnc21`, the EC50 in assay [4] was < 0.16 µM (active). Also, in [5], the IC50 was 40.1 µM (inactive). Besides, the AC50 in assay [6] is 9.75 µM (active); in assay [7], 6.87 µM (active); in assay [8], > 52 µM (inactive).
Consider `N=C(NOC(=O)COc1ccc2ccccc2c1Br)c1ccccn1`, for which the IC50 in “cells [3]” is > 138 µM (inactive); at Major prion protein, 4.71 µM (active).
Consider `Cc1sc(NC(=O)c2ccco2)c(C(c2cccnc2)N2CCN(c3ccc(F)cc3)CC2)c1C` (stereo not drawn), for which the values for the EC50 (in assay [9]; in “cells [10]”; in assay [11]) were < 0.1 µM (active), 0.385 µM (active) and > 60 µM (not active), respectively.
Take `CCc1c(C)[nH]c2c(C#N)c(C)nn2c1=O`: on fMet-Leu-Phe receptor, the Ki is 21.7 µM (inactive).
As to `Cc1cccc(NC(=O)c2onc3c2CCCC3)n1`, the EC50 is 8.8 µM (active) in [12]; 13.3 µM (active) in [13]; > 150 µM (inconclusive) in the assay with BJ [14]; 15 µM (active) in the assay on BJ [16]; 6.78 µM (active) in assay [18]; 18 µM (active) in the assay with BJ [19]. Moreover, the AC50 was 19.6 µM (active) in [15]; 5.51 µM (active) in assay [6]; 19.4 µM (active) in assay [17]; 3.23 µM (active) in [7]; 15.9 µM (active) in [8].
Take `CCN(CCO)CCCC(C)Nc1ccnc2cc(Cl)ccc12` (stereo not drawn) [HYDROXYCHLOROQUINE SULFATE]: the IC50 in assay [20], in assay [21], in assay [22], in assay [23], in assay [24] and in [25] was > 20 µM (inactive) throughout. Further, in [26], the IC50 is > 20 µM (inactive).
As to `COc1ccc(CN2CCCC(CO)(Cc3cccc(Cl)c3)C2)cc1OC` (stereo not drawn), the figures for the EC50 (in assay [9]; in “cells [10]”; in assay [11]) were < 0.1 µM (active), 0.352 µM (active) and > 30 µM (not active), respectively.
As to `O=C1c2ccccc2S(=O)(=O)c2cc(N3CCN(C(=O)c4ccccc4)CC3)ccc21`, the AC50 in assay [15] was 23.5 µM (active); in assay [6] it was 22.3 µM (active); in [17], > 52 µM (inactive); in assay [7], 20.8 µM (active); in assay [8], > 52 µM (inactive).
Regarding `O=c1[nH]c2ccccc2c(=O)n1Cc1ccco1`, the IC50 against Estrogen receptor beta is given as > 50 µM (not active).
For `CCc1ccc(CN2CCCC(CNC(=O)c3cccc(OC)c3OC)C2)cc1` (stereo not drawn), the figures for the EC50 (in [9]; in “cells [10]”; in assay [11]) were < 0.1 µM (active), 0.37 µM (active) and > 60 µM (not active), respectively.

Usually Ki stands for a dissociation constant, usually derived from enzyme kinetics or from competition with a known ligand. Usually AC50 stands for the concentration at which the activity in the assay is half-maximal. For orientation: IC50 means the concentration that gives 50% inhibition. What is called EC50 is the concentration giving half of the maximal effect.
